MIC and Activity data for 2 compounds are collected here from ChEMBL document CHEMBL1156014, “Synthesis of antibacterial pseudopeptides with less hemolytic activity from a cytotoxic peptide and their pH-dependent activity” (Bioorg Med Chem Lett, 2009).

Converted amounts (≈) assume the structure as drawn. Where a SMILES comes first, the peptide text is derived from it. The star is where a group is joined. X2 = CC(C)C[C@H](NC[C@H](CCCCN)N*)C(=O)N[C@@H](CC(C)C)C(=O)N[C@@H](CCCCN)C(N)=O

Series [1] relates to Pseudomonas aeruginosa. The experiment in a line: Antibacterial activity against Pseudomonas aeruginosa ATCC 9027 at pH 8.4. It counts as functional.
The nature of series [2]: Permeability across Escherichia coli large unilamellar vesicles assessed as calcein entrapped leakage from phosphatidylglycerol/phosphatidylcholine at pH 8.4. In kind it is ADME.
Series [3] has as its system Pseudomonas aeruginosa. The experiment in a line: Antibacterial activity against Pseudomonas aeruginosa ATCC 9027 at pH 7.4. It counts as functional.
The test system of series [4] is Staphylococcus aureus. The series can be described thus: Antibacterial activity against Staphylococcus aureus ATCC 6538 at pH 7.4. In kind it is functional.
Series [5] is described as follows: Permeability across Escherichia coli large unilamellar vesicles assessed as calcein entrapped leakage from phosphatidylglycerol/phosphatidylcholine at pH 7.4. In kind it is ADME.
The nature of series [6]: Permeability across Escherichia coli large unilamellar vesicles assessed as calcein entrapped leakage from phosphatidylglycerol/phosphatidylcholine at 7.5 uM at pH 7.4. To be noted: pH 7.4, 7.5 µM. It counts as ADME.
Series [7] has as its system Staphylococcus aureus. The series can be described thus: Antibacterial activity against Staphylococcus aureus ATCC 6538 at pH 8.4. It counts as functional.
The subject of series [8] is Escherichia coli. The experiment in a line: Antibacterial activity against Escherichia coli ATCC 25922 at pH 8.4. It counts as functional.
Series [9] has as its system Micrococcus luteus. The experiment in a line: Antibacterial activity against Micrococcus luteus ATCC 9341 at pH 8.4. In kind it is functional.
The test system of series [10] is Micrococcus luteus. The experiment in a line: Antibacterial activity against Micrococcus luteus ATCC 9341 at pH 7.4. It counts as functional.
The test system of series [11] is Escherichia coli. The experiment in a line: Antibacterial activity against Escherichia coli ATCC 25922 at pH 7.4. In kind it is functional.
A short description of series [12]: Permeability across Escherichia coli large unilamellar vesicles assessed as calcein entrapped leakage from phosphatidylglycerol/phosphatidylcholine at 15 uM at pH 8.4. It counts as ADME. The following applies: pH 8.4, 15 µM.
Series [13] is described as follows: Toxicity in human erythrocytes assessed as hemolytic activity up to 200 ug/ml at pH 7.4 after 1 hr. It counts as cell-based. The following applies: erythrocyte, pH 7.4, 1 h.

The MIC is the lowest concentration found to suppress growth. A lower MIC goes with inhibition by little substance. Take Ac-KLLLKLWLKLLK-NH2: the MIC in the series on Pseudomonas aeruginosa [1] came out at 50 µg/mL; in the series on Pseudomonas aeruginosa [3], 50 µg/mL; against Staphylococcus aureus [4] it was 6.25 µg/mL; against Staphylococcus aureus [7], 25 µg/mL; against Escherichia coli [8] it was 50 µg/mL; in the series on Micrococcus luteus [9], 6.25 µg/mL. Also, the MIC against Micrococcus luteus [10] is 6.25 µg/mL; against Escherichia coli [11] it was 12.5 µg/mL. The Activity entry in series [2] is “Dose-dependent effect”; in series [5], “Dose-dependent effect”; in series [6], 90%; in series [12], 80%.

On to `CC(=O)N[C@@H](CCCCN)C(=O)N[C@@H](CC(C)C)C(=O)N[C@@H](CC(C)C)C(=O)N[C@@H](CC(C)C)C(=O)N[C@@H](CCCCN)C(=O)N[C@@H](CC(C)C)C(=O)N[C@@H](Cc1c[nH]c2ccccc12)C(=O)N[C@@H](CC(C)C)C(=O)N[C@@H](CCCCN)CN[C@@H](CC(C)C)C(=O)N[C@@H](CC(C)C)C(=O)N[C@@H](CCCCN)C(N)=O` (Ac-KLLLKLWL-X2), for which the MIC came out at 50 µg/mL (≈ 32.5 µM) in the series with Pseudomonas aeruginosa [1]; 50 µg/mL (≈ 32.5 µM) against Pseudomonas aeruginosa [3]; 6.25 µg/mL (≈ 4.07 µM) with Staphylococcus aureus [4]; 12.5 µg/mL (≈ 8.14 µM) with Staphylococcus aureus [7]; 25 µg/mL (≈ 16.3 µM) in the series with Escherichia coli [8]; 6.25 µg/mL (≈ 4.07 µM) against Micrococcus luteus [9]. For the same compound, the MIC was 6.25 µg/mL (≈ 4.07 µM) in the series on Micrococcus luteus [10] and 12.5 µg/mL (≈ 8.14 µM) in the series on Escherichia coli [11]. Further, the Activity entry in [2] was “Dose-dependent effect”; in series [5], “Dose-dependent effect”; in series [13], “Not Active”.
